# Source: patent publication US10034879B2, “Substituted benzaldehyde compounds and methods for their use in increasing tissue oxygenation” (Global Blood Therapeutics, Inc., priority 2011, dated 2018)
# What was measured:
# purified HBS = biological target: T1, purified HBS (Homo sapiens, UniProt P68871+P69905, E7V); assay: HbS polymerization assay (delay time); assay type: biochemical; settings: 50 μM purified HBS, 1.8 M potassium phosphate pH 7.4
# T1 construct: HbS is purified by the CRO VIRUSYS, from blood obtained from homozygous sickle cell patients; tissue VIRUSYS (CRO that did the purification); host or cells: blood of homozygous sickle cell patients
# Experimental: Polymerization assays are carried out in vitro using purified HBS exchanged into 1.8 M potassium phosphate buffer at pH 7.4. Using a slightly modified protocol (Antonini and Brunori, 1971), HbS is purified by the CRO VIRUSYS, from blood obtained from homozygous sickle cell patients through the Hemoglobinopathy Center at Children's Hospital Oakland Research Institute (CHORI) with Institutional Review Board approval. Compounds are prepared in 100% DMSO and a desired amount is added to 50 μM of purified HBS at a final DMSO concentration of 0.3%. Final potassium phosphate concentration is adjusted to 1.8 M using a combination of 2.5 M potassium phosphate stock solution and water at pH 7.4. The reaction mixture is incubated for an hour at 37° C. and then transferred into a 24-well plate for deoxygenation in a glove box containing 99.5% nitrogen and 0.5% oxygen. The 24-well plate is not covered and incubated at 4° C. on a plate cooler inside the glove box for one and a half hours. Fifty μL of the reaction mixture is transferred into a 96-well plate and the absorbance at 700 nm is measured every minute for one hour at 37° C. in a plate reader located inside the glove box. A plot of the absorbance against time is fitted using a Boltzman sigmoidal fit and the delay time (from zero to time at half Vmax) is measured. To compare and rank compounds, delay times are expressed as percent delay (% DT), which is defined as the difference in delay times for HBS/compound and HBS alone multiplied by 100 and divided by the delay time for HBS alone.
# Compounds listed below have been tested in the polymerization assay. Activity ranges are defined by the number of dagger (†) symbols indicated. † denotes activity ≤40% but ≤80%; †† denotes activity >80% but ≤120%; ††† denotes activity >120% but ≤140%; †††† denotes activity >160%.
# HbS = biological target: T2, HbS (Homo sapiens, UniProt P68871+P69905, E7V); assay: Whole blood assay, oxygen equilibrium curves of whole blood from sickle cell patients; assay type: cell-based; settings: hematocrit 20%, compound at 1000 μM
# T2 construct: Oxygen Equilibrium Curves (OEC) of whole blood before and after treatment; endogenous in cells; host or cells: whole blood (red blood cells) of homozygous sickle cell patients
# Experimental: Oxygen Equilibrium Curves (OEC) of whole blood before and after treatment with different concentrations of substituted benzaldehyde compounds were performed as follows using a HEMOX analyzer (TCS Scientific, New Hope, Pa.). Blood samples from homozygous sickle cell patients were obtained though the Hemoglobinopathy Center at Children's Hospital Oakland Research Institute (CHORI) with Institutional Review Board approval. The hematocrit was adjusted to 20% using autologous plasma and the blood samples were incubated for 1 hour at 37° C. in absence or presence of compounds. 100 μl of these samples were added to 5 mL of Hemox buffer (30 mM TES, 130 mM NaCl, 5 mM KCl, pH=7.4) at 37° C. and then transferred to the Hemox sample chamber. The samples were saturated with oxygen by flushing with compressed air for 10 minutes. The samples were then flushed with pure nitrogen and the respective absorbances of oxy- and deoxy-Hb are recorded as a function of the solution pO2. The oxygen equilibrium data were then fitted to the Hill Model to obtain values for p50. The deoxygenation curves for both whole blood alone (control) and whole blood in the presence of the compound were collected with the TCS software.
# Table 5 below lists the delta p50% values where + indicates a delta p50% of between 0 and 29, ++ indicates a delta p50% of between 30 and 50, and +++ indicates a delta p50% of 50 or greater. The compounds in Table 2 were tested at 1000 μM.
# HbS/A = biological target: T3, HbS/A (Homo sapiens, UniProt P68871+P69905, E7V); assay: Relaxed-to-tense transition assay (R/T assay); assay type: biochemical; settings: 3 μM HbS/A
# T3 construct: A mixture of HbS/A was purified from blood; from tissue; host or cells: blood of homozygous sickle cell patients
# Experimental: A relaxed-to-tense transition assay (“R/T assay”) was used to determine the ability of substituted benzaldehyde compounds to maintain the high-oxygen affinity relaxed (R) state of hemoglobin under deoxygenated conditions. This ability can be expressed as a “delta R” value (i.e., the change in the time-period of the R state after hemoglobin is treated with a compound, as compared to the period without treatment with the compound). Delta R is the % R to remaining after the compounds treatment compared with no treatment (e.g. if R % without treatment is 8% while with treatment with a target compound is 48% R at 30 μM, then % R is 40% for that compound.
# A mixture of HbS/A was purified from blood obtained from homozygous sickle cell patients though the Hemoglobinopathy Center at Children's Hospital Oakland Research Institute (CHORI) with Institutional Review Board approval. HbS/A (at a final concentration of 3 μM) was incubated for 1 hr at 37° C. in presence or absence of compounds in […] potassium phosphate buffer, pH=7.4 and 30 μM 2, 3 diphosphoglycerate (DPG) in 96 well plates in a final volume of 160 μl. Compounds were added at different concentrations (3 μM to 100 μM final concentrations). Plates were covered with a Mylar film. After incubation was completed the Mylar cover was removed and the plates were placed in a Spectrostar Nano plate reader previously heated at 37° C. Five minutes later, N2 (flow rate=20 L/min) was flowed through the spectrophotometer. Spectroscopic measurements (300 nm to 700 nm) were taken every 5 min for 2 hours. Data analysis was performed by using linear regression from the data retrieved for all wavelengths.
# Table 4 below lists the delta R values where + indicates a delta R of between 0 and 30, ++ indicates a delta R of between 30 and 50, and +++ indicates a delta R of 50 or greater. Unless noted otherwise, the compounds in Table 2 were tested at 9 μM.
# [1] = system: Transgenic mice producing human HbS; settings: extreme hypoxia (5% oxygen), vs non-treated mice; cited from earlier work
Compound,% delta Delay (purified HBS),delta p50% (HbS),delta R (%) (HbS/A; compound at 9 μM),amounts of hypoxia-induced sickled red blood cells [1],survival times [1],delta R (%) (HbS/A; compound at 30 μm)
"O=Cc1ccc(CO)o1 [Compound 5HMF, 5-hydroxymethyl-2-furfuraldehyde]",–,–,–,reduced,significantly improved,–
"O=Cc1c(O)cccc1OCc1ccc(C(=O)O)cc1 [Compound 42, 4-((2-formyl-3-hydroxyphenoxy)methyl)benzoic acid]",†† (†† denotes activity >80% but ≤120%),+ (+ indicates a delta p50% of between 0 and 29),–,–,–,+++ (30 μm) (+++ indicates a delta R of 50 or greater)
"O=Cc1c(O)cccc1OCc1cccc(-c2nn[nH]n2)c1 [Compound 44, 2-((3-(2H-tetrazol-5-yl)benzyl)oxy)-6-hydroxybenzaldehyde]",–,+ (+ indicates a delta p50% of between 0 and 29),+++ (+++ indicates a delta R of 50 or greater),–,–,–

# More lines, main results first:
% delta Delay (purified HBS),Compound,delta p50% (HbS),delta R (%) (HbS/A; compound at 9 μM),amounts of hypoxia-induced sickled red blood cells [1],survival times [1],delta R (%) (HbS/A; compound at 30 μm)
†† (†† denotes activity >80% but ≤120%),"O=Cc1c(O)cccc1OCc1ccc(-c2nn[nH]n2)cc1 [Compound 45, 2-((4-(2H-tetrazol-5-yl)benzyl)oxy)-6-hydroxybenzaldehyde]",+ (+ indicates a delta p50% of between 0 and 29),+++ (+++ indicates a delta R of 50 or greater),–,–,–
†† (†† denotes activity >80% but ≤120%),"O=Cc1ccccc1OCc1ccc(C(=O)O)cc1 [Compound 47, 4-((2-formylphenoxy)methyl)benzoic acid]",–,–,–,–,–
